Literature values in US5008416A, “Organogermanium compound, process for the preparation of same as well as use thereof” (Sanwa Kagaku Kenkyusho Co., Ltd., priority 1989, dated 1991).

How the values were obtained:
[1] = Jap. Pat. No. Sho 61-151123(A), U.S. Pat. No. 4,889,715, EP 0186505; cited from earlier work
[2] = Cancer Res., Vol. 42, page 2852 (1982); cited from earlier work

Compound | Immunomodulating activity (result in words) [1] | Anti-cancer or antitumor activity (result in words) [2]
3-oxygermylpropionic acid polymer | shows an excellent immunomodulating activity | –
C[CH2][Ge]1([CH2]C)[CH2]CC2(CCN(CCCN(C)C)C2)C[CH2]1 [Spirogermanium] | – | shows an anti-cancer or antitumor activity
